# Measured values from ChEMBL document CHEMBL1201862, “PubChem BioAssay data set” (2004).
# The source made the active and inactive calls.
# Experiments:
# [1] = fluconazole-exposed Candida albicans growth modulators – fluorescence, retest, confirmation (AID 2467); assay type: functional, cell-based
# Estrogen receptor beta = Estrogen receptor beta (Homo sapiens, UniProt Q92731); assay: blockers of SRC-3 recruitment to ERβ – biochemical, ELISA, streptavidin-HRP readout, orthogonal assay, confirmation (AID 1060)
# Chain of Estrogen receptor beta (Q92731 whole entry): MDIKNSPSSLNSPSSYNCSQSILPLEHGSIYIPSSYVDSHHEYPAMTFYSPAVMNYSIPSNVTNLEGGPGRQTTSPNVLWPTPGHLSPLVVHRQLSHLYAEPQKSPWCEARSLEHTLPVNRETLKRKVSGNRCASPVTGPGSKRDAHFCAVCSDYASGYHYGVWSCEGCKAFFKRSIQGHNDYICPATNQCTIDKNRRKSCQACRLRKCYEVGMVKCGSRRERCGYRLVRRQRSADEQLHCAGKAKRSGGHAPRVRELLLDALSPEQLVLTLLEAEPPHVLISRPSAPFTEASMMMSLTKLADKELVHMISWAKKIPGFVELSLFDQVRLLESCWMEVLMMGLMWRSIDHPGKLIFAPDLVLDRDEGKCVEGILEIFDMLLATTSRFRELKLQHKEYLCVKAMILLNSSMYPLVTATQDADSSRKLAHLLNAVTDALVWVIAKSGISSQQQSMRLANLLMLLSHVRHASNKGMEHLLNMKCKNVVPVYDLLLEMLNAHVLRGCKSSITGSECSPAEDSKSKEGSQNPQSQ
# [2] = NIH-3T3 fibroblast cytotoxicity, dose response, cytotoxicity control, cell-based, fluorescence, Alamar Blue, secondary assay (AID 2327); assay type: functional;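 further: NIH-3T3 mouse fibroblasts cultured with fluconazole at 8 µg/mL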
# [3] = blockade of melanocortin 4 receptor signaling – cell-based, plate reader, cherry pick, counter-screen for LGR2 antagonist project, dose response (AID 743444); assay type: functional;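 further: transfected HEK 293 cells stimulated with alpha-MSH peptide; potency of inhibitors of the alpha-MSH evoked signal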
# Streptococcus = assay: GAS UMAA2166 growth inhibition – luminescence, BacTiterGlo, counter-screen for streptokinase expression inhibitor project, dose response (AID 1915); assay type: functional, organism-based;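 further: potency for reduction of bacterial viability or growth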
# [4] = toxicity toward HepG2 liver cells – cell-based, plate reader, cherry-pick, antagonist series, cytotoxicity control, dose response (AID 743416); assay type: functional
# Streptokinase A = target: T1, Streptokinase A (Streptococcus pyogenes serotype M1, UniProt P10520); assay: viability-normalized secreted streptokinase activity reduction – plasminogen activation absorbance, OD405, dose response (AID 1914); assay type: functional, Streptococcus pyogenes M1 GAS;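 further: secreted streptokinase activity via plasminogen activation per viability signal from cell pellet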
# T1 sequence (P10520 whole entry): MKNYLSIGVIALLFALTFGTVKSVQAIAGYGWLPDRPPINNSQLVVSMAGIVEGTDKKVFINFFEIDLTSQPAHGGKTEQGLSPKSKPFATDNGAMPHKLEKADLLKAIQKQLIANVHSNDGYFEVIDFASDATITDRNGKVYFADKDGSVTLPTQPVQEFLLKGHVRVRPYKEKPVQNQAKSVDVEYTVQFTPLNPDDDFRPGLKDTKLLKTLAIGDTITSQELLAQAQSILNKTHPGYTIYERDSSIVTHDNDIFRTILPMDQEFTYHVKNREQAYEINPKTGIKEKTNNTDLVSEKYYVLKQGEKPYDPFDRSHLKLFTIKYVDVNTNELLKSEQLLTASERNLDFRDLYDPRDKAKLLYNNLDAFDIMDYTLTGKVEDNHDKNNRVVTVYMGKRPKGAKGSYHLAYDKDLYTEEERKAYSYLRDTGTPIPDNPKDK
# [5] = viability loss in HEK293 cells – cell-based, plate reader, cherry-picked samples, cytotoxicity control, dose response (AID 743446); assay type: functional
# [6] = tested on: Streptococcus sp. 'group A'; assay: Streptococcus pyogenes SK(-)GAS viability under kanamycin – luminescence, BacTiterGlo, confirmation, counter-screen for streptokinase expression inhibitor project, dose response (AID 1900); assay type: functional, organism-based
# [7] = blockers of bursicon-stimulated LGR2 cAMP reporter – cell-based, HEK293, CRE-luciferase reporter, cherry pick, set 2, dose response (AID 743343); assay type: functional;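 further: transfected cells were stimulated with diluted bursicon conditioned medium after compound addition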
# [8] = Luminescence-based counterscreen assay for KLF5 inhibitors: dose response cell-based high throughput screening assay to identify cytotoxic compounds using the IEC-6 intestinal epithelial cell line. [Related pubchem assays: 1700 (Primary screen.), 1834 (Confirmation screen.), 1858 (Summary AID.), 1905 (Counterscreen.)]; assay type: functional
# [9] = A549 cell cytotoxicity, dose response, cytotoxicity control, plate reader, cherry-pick, antagonist series (AID 743412); assay type: functional, cell-based
# [10] = target: Lytic switch protein BZLF1 (Epstein-Barr virus (strain B95-8) (HHV-4) (Human herpesvirus 4), UniProt P03206); assay: inhibition of BZLF1 ZTA DNA binding – biochemical, fluorescence polarization, Epstein-Barr virus, 1536-well, counter-screen for EBNA-1 inhibitor project, dose response (AID 2377); design: species or system human gammaherpesvirus 4;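 further: fluorescence polarization of Cy5-labelled ZRE DNA probe bound by purified Zta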
# Chain of Lytic switch protein BZLF1 (P03206 whole entry): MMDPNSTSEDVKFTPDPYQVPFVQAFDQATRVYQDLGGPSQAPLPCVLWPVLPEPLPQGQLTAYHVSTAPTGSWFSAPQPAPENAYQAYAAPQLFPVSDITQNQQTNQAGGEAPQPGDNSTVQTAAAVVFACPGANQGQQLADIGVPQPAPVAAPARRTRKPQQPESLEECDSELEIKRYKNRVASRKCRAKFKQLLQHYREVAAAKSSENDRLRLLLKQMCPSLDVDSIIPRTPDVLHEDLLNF
# H4 = assay: Luminescence Cell-Based Dose Response HTS to Identify Activators of 5'UTR Stem-Loop Driven Prion Protein mRNA Translation in H4 Neuroglioblastoma Cells. [Related pubchem assays: 1829 (Project Summary), 1814 (Primary HTS)]; assay type: functional; settings: Homo sapiens
# [11] = Luminescence Cell-Based Dose Confirmation to Identify Activators of 5'UTR Stem-Loop Driven Alpha-Synuclein mRNA Translation in H4 Neuroglioblastoma Cells. [Related pubchem assays: 1829 (Project Summary), 1814 (Primary HTS)]; assay type: functional
# [12] = target: Epstein-Barr nuclear antigen 1 (Epstein-Barr virus (strain B95-8) (HHV-4) (Human herpesvirus 4), UniProt P03211); assay: inhibition of EBV nuclear antigen 1 DNA binding – biochemical, fluorescence polarization, 1536-well, dose response (AID 2381); design: species or system human gammaherpesvirus 4;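 further: fluorescence polarization of a Cy5 DNA probe bound by EBNA-1 protein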
# Chain of Epstein-Barr nuclear antigen 1 (P03211 whole entry): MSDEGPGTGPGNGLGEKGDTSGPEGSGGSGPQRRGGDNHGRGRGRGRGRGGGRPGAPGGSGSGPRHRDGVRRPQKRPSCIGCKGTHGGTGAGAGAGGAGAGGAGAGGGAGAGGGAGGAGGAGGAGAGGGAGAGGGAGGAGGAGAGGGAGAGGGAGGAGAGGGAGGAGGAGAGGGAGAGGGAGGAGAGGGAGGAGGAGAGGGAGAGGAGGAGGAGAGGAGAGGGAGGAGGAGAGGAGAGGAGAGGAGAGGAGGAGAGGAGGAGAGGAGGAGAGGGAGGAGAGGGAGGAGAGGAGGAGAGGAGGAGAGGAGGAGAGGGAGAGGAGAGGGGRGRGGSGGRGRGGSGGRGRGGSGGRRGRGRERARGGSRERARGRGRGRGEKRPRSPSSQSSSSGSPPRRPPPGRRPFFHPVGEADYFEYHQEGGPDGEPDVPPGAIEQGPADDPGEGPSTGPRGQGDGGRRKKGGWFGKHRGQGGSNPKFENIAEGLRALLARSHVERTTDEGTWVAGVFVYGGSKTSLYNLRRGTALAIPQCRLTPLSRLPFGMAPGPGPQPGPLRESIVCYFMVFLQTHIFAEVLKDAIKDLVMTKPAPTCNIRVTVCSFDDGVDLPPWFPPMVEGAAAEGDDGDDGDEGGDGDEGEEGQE
# [13] = Luminescence Cell-Based Dose Response to Identify Activators of Luciferase Translation or Activity in H4-C Neuroglioblastoma Cells. [Related pubchem assays: 1829 (Project Summary), 1814 (Primary HTS)]; assay type: functional
# [14] = Luminescence Cell-Based Dose Response to Identify Activators of 5'UTR Stem-Loop Driven Prion Protein mRNA Translation in H4-C Neuroglioblastoma Cells. [Related pubchem assays: 1829 (Project Summary), 1814 (Primary HTS)]; assay type: functional
# [15] = target: Neuropeptide Y receptor type 1 (Homo sapiens, UniProt P25929); assay type: functional;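 further: HEK293 cells with a CNG channel challenged with NPY then isoproterenol; potency as antagonist that reverses NPY suppression of cAMP signal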
# Chain of Neuropeptide Y receptor type 1 (P25929 whole entry): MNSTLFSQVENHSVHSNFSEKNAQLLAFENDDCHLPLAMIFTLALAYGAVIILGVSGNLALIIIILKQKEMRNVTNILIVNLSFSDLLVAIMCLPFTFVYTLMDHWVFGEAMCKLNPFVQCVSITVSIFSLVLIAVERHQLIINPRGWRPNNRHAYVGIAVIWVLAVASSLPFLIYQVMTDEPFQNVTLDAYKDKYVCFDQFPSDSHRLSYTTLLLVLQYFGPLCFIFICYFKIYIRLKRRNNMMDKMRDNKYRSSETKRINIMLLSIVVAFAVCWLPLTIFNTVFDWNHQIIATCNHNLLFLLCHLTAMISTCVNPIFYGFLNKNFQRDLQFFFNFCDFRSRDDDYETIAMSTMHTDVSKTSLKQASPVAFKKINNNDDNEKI
# [16] = target: Neuropeptide Y receptor type 2 (Homo sapiens, UniProt P49146); assay type: functional, cell-based;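 further: HEK293 cells expressing the receptor and a CNG channel; stimulus was NPY near EC95 followed by isoproterenol to raise cAMP; antagonist potency measured as restoring cAMP signal that NPY suppresses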
# Chain of Neuropeptide Y receptor type 2 (P49146 whole entry): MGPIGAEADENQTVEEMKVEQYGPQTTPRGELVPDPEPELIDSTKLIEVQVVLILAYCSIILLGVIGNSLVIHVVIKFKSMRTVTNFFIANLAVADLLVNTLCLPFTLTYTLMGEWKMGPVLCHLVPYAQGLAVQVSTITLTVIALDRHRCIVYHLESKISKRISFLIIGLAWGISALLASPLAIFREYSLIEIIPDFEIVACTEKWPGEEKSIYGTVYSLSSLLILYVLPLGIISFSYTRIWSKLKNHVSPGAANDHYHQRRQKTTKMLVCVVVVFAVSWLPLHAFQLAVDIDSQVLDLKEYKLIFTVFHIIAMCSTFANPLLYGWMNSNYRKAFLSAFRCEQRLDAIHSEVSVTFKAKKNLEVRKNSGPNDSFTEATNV
# Vero = assay: mammalian cell viability reduction – secondary assay, cytotoxicity control for West Nile virus antiviral project, dose response (AID 1650); assay type: functional; settings: Chlorocebus sabaeus
# [17] = decrease of insulin promoter-GFP reporter – imaging, high-content screening, mouse beta cells (AID 1628); assay type: functional; settings: MIN6
# [18] = luciferase reporter signal suppression in cells – H4 neuroglioma cells, luminescence, dose response (AID 1990); assay type: functional, cell-based
# [19] = MIN6 cell viability loss – mouse insulinoma, cytotoxicity control, dose response (AID 2122); assay type: functional;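 further: confirmatory high-throughput counterscreen run to flag cytotoxic compounds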
# [20] = target: Induced myeloid leukemia cell differentiation protein Mcl-1 (Homo sapiens, UniProt Q07820); assay type: functional
# Chain of Induced myeloid leukemia cell differentiation protein Mcl-1 (Q07820 whole entry): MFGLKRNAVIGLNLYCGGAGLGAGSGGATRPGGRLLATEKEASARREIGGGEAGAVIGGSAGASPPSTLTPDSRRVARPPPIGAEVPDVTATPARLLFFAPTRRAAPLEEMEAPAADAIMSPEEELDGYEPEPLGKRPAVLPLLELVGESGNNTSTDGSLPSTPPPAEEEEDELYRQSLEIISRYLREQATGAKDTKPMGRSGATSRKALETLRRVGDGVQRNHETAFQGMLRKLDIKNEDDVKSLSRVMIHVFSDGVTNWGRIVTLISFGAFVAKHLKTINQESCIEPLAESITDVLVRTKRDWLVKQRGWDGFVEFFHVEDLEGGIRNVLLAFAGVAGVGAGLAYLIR
# [21] = alpha-synuclein stem-loop luciferase translation blockers – H4 neuroglioma cells, luminescence, confirmation (AID 1988); assay type: functional, cell-based
# [22] = Luminescence Cell-Based Dose Response HTS to Identify Inhibitors of 5'UTR Stem-Loop Driven Prion Protein mRNA Translation in H4 Neuroglioblastoma Cells. [Related pubchem assays: 1827 (Project Summary), 1813 (Primary HTS)]; assay type: functional
# [23] = Counterscreen for AddAB inhibitors: absorbance-based bacterial cell-based high throughput dose response assay for inhibitors of bacterial viability. [Related pubchem assays (depositor defined):AID435030, AID449728, AID449731, AID488942, AID488955, AID488956]; assay type: functional
# INS1 = assay: INS-1E survival protection against cytokine death – cell-based, luminescence, retest, dose response (AID 449756); assay type: functional; settings: Rattus norvegicus;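 further: cell death triggered by IL-1 beta plus TNF-alpha plus IFN-gamma mixture; protective hits raise ATP signal compared with cytokine alone wells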
# Exodeoxyribonuclease V = target: T2, Exodeoxyribonuclease V (Escherichia coli (strain K12), UniProt P04993+P07648+P08394); assay: RecBCD inhibition via phage-restricted bacterial growth – absorbance, V66 E. coli, mutant T4 phage, counter-screen for AddAB inhibitor project, dose response (AID 492957); assay type: functional, cell-based, Escherichia coli str. K-12 substr. MG1655
# T2 sequence (P04993 whole entry): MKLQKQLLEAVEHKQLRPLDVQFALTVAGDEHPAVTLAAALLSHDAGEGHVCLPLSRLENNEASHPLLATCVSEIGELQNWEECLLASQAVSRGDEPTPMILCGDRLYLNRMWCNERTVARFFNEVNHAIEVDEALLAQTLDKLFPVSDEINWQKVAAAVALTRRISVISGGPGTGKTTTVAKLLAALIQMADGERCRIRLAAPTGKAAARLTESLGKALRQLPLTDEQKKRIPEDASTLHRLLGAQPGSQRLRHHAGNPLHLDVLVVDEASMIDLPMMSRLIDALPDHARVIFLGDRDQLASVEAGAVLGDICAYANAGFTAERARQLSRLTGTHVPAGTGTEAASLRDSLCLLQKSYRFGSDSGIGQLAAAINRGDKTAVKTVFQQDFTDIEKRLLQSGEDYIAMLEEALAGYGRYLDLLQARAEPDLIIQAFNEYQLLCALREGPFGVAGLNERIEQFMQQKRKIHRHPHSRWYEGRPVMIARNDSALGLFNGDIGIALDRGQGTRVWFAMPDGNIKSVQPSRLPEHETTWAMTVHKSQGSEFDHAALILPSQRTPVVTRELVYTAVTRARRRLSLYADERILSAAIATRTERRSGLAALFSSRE
# T2 sequence (P07648 whole entry): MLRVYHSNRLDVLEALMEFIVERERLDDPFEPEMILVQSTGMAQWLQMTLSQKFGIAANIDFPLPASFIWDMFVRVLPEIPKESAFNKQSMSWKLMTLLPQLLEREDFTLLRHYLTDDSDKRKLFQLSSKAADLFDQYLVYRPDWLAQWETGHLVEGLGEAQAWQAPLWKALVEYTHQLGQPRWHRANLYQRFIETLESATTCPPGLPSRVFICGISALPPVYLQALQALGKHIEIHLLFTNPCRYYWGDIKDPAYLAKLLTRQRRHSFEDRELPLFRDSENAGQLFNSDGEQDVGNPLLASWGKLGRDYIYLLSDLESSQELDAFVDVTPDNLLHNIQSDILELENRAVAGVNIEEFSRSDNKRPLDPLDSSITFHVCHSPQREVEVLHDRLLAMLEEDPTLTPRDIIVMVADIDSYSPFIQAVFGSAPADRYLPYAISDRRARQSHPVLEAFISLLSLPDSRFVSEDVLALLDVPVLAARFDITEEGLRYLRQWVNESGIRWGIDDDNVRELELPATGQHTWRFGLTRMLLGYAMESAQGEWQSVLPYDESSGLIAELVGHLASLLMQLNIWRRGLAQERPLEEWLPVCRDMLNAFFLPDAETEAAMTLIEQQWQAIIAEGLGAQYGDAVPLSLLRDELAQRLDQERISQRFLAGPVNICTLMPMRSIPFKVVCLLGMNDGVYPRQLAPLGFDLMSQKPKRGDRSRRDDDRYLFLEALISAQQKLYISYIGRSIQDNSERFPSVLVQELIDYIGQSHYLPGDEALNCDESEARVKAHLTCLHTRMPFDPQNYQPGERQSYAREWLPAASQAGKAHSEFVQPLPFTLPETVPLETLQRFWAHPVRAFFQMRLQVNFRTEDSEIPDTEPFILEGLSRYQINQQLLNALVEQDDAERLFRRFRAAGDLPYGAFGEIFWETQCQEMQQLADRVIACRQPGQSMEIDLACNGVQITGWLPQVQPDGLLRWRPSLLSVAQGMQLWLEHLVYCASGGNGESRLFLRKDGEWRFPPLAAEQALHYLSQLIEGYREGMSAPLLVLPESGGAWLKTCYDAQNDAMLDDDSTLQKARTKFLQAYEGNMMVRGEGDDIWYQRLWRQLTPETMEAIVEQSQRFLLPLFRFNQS
# T2 sequence (P08394 whole entry): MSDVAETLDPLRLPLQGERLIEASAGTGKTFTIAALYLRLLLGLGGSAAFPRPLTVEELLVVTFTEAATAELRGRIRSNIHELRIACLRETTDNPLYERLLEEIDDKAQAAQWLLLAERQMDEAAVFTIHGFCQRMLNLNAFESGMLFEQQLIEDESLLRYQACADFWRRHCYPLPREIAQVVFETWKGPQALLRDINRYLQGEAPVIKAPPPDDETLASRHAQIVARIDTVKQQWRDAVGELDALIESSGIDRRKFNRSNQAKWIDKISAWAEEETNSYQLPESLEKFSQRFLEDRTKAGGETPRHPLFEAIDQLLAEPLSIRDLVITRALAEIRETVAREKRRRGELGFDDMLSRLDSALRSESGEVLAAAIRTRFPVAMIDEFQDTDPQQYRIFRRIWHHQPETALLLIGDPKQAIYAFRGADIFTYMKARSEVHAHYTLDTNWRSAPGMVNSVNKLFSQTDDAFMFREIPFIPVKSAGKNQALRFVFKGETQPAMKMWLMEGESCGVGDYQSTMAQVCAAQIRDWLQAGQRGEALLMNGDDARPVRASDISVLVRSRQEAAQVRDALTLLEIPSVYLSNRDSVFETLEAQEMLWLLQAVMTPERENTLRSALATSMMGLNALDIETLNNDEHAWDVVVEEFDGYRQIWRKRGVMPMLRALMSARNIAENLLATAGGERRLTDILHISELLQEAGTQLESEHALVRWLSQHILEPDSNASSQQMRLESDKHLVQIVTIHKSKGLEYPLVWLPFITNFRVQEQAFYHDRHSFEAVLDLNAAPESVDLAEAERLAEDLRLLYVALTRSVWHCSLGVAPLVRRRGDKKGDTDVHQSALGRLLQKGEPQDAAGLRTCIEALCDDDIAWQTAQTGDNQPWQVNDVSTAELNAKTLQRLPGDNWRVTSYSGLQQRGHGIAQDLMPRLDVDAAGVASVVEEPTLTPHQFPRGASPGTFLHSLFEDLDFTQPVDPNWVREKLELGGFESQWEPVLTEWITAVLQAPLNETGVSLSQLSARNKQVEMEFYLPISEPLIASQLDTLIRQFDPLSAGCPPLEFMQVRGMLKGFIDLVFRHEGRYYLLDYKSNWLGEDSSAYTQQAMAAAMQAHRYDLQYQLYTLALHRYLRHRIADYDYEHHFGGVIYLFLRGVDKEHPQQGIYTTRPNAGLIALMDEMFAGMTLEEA
smiles,measurement,setting,value
CN1CCN(C(c2cccnc2)c2ccc3cccnc3c2O)CC1 (configuration not stated),EC50,[1],> 38 µM (not active)
same,IC50,Estrogen receptor beta,32.6 µM (not active)
same,EC50,[2],> 160 µM (inactive)
O=C(Nc1nc2cc3c(cc2s1)OCCO3)c1ccco1,AC50,[3],1.07 µM (active)
same,EC50,Streptococcus,53.5 µM (active)
same,AC50,[4],28.5 µM (active)
same,EC50,Streptokinase A,> 150 µM (not active)
same,AC50,[5],45.4 µM (active)
same,EC50,[6],19.5 µM (active)
same,AC50,[7],1.12 µM (active)
same,IC50,[8],7.91 µM (active)
same,AC50,[9],12.9 µM (active)
Cc1cc(C(=O)CSc2nnnn2-c2ccccc2)c(C)n1CC1CCCO1 (configuration not stated),IC50,[10],> 111 µM (not active)
same,EC50,H4,< 0.1 µM (active)
same,EC50,[11],0.338 µM (active)
same,IC50,[12],5.23 µM (active)
same,EC50,[13],0.353 µM (active)
same,EC50,[14],0.326 µM (active)
COc1ccc(-c2noc(COc3ccc(Cl)c(C)c3)n2)cc1,IC50,[15],5.14 µM (active)
same,IC50,[16],4.25 µM (active)
Cc1ccc(C(C)C)c(OCc2ccc(C(=O)N/N=C/c3ccc(O)cc3O)cc2)c1,CC50,Vero,6.86 µM (active)
same,IC50,[17],1.03 µM (active)
same,EC50,[18],3 µM (active)
same,EC50,Streptococcus,2.15 µM (active)
same,IC50,[19],1.04 µM (active)
same,IC50,[20],4.97 µM (active)
same,EC50,[6],1.3 µM (active)
same,EC50,[21],2.17 µM (active)
same,EC50,[22],8.36 µM (active)
same,IC50,[23],> 119 µM (inactive)
same,AC50,INS1,1.24 µM (active)
same,IC50,Exodeoxyribonuclease V,> 119 µM (inactive)
